Laboratory results taken from patent publication EP4361157A1, “FUSED TETRACYCLIC COMPOUND, PREPARATION METHOD THEREFOR AND APPLICATION THEREOF IN MEDICINE” (Jiangsu Hengrui Pharmaceuticals Co., Ltd., priority 2021, dated 2022).

What was measured:
[1] = test system: GP2d cells; assay: Inhibition of 3D proliferation of GP2d cells (CellTiter-Glo 3D); format: cell-based; conditions: 120 h incubation
Procedure: GP2d cells (Nanjing Cobioer, CBP60010) were cultured in a complete medium, namely DMEM/high glucose medium (Hyclone, SH30243.01) containing 10% fetal bovine serum (Corning, 35-076-CV). On the first day of the experiment, GP2d cells were seeded into a 96-well low adsorption plate (Corning, CLS7007-24EA) with complete medium at a density of 1,000 cells/well to form 90 µL of cell suspension per well. The plate was centrifuged at 2,000 rpm for 5 min at room temperature and then incubated overnight in a cell incubator at 37 °C with 5% CO2.
The next day, 10 µL of serially-diluted test compound prepared from the complete medium was added to each well. The final concentrations of the compound of GP2d cells were 9 concentration points obtained by 3-fold serial dilution from 1 µM, and the final concentrations of the compound of AGS cells were 9 concentration points obtained by 3-fold serial dilution from 10 µM. A blank control containing 0.5% DMSO was set. The well plate was incubated in a cell incubator at 37 °C with 5% CO2 for 120 h. On the seventh day, the 96-well cell culture plate was taken out, 50 µL CellTiter-Glo® 3D reagent (Promega, G9682) was added into each well, the plate was shaken at room temperature for 25 min, pipetted and mixed well, 50 µL of the solution was transferred into a white impermeable 96-well plate (PE, 6005290), and the luminescence signal values were read using a multifunctional microplate reader (PerkinElmer, ENVISION).
Table 2. Inhibitory activity data for 3D proliferation of AGS and GP2d cells

[2] = test system: AGS cells; assay: Inhibition of ERK phosphorylation of AGS cells (HTRF method); format: cell-based; conditions: phosphorylated ERK/total ERK ratio, 1 h incubation
Procedure: AGS cells (Nanjing Cobioer, CBP60476) were cultured in RPMI1640 (Hyclone, SH30809.01) complete medium containing 10% fetal bovine serum. On the first day of the experiment, the AGS cells were seeded into a 96-well plate with complete medium at a density of 40,000 cells/well to form 190 µL of cell suspension per well. The plate was incubated overnight in a cell incubator at 37 °C with 5% CO2.
The next day, 10 µL of serially-diluted test compound prepared from the complete medium was added to each well. The final concentrations of the compound were 9 concentration points obtained by 5-fold serial dilution from 10 µM. A blank control containing 0.5% DMSO was set. The well plate was incubated in a cell incubator at 37 °C with 5% CO2 for 1 h. After completion of incubation, the 96-well cell culture plate was taken out, the medium was removed by pipetting, 200 µL PBS (Shanghai BasalMedia Technologies Co., Ltd., B320) was added to each well, and the cells were washed once. PBS was removed by pipetting, 50 µL of lysis buffer (Cisbio, 64KL1FDF) containing a blocking solution (blocking reagent, Cisbio, 64KB1AAC) was added to each well, and the well plate was lysed on a shaker for 40 min at room temperature with shaking. After lysis, the lysate was pipetted and mixed well, 16 µL of lysate was transferred to two HTRF 96-well assay plates (Cisbio, 66PL96100) per well, and then 4 µL of premixed phosphorylated ERK1/2 antibody solution (Cisbio, 64AERPEG) or 4 µL of premixed total ERK1/2 antibody solution (Cisbio, 64NRKPEG) was added to these two plates. The microplate was sealed with a sealing membrane, centrifuged for 1 min in a microplate centrifuge, and incubated overnight at room temperature in the dark. On the third day, the fluorescence values at an excitation wavelength of 337 nm and at emission wavelengths of 665 nm and 620 nm were read using an ENVISION multifunctional microplate reader (PerkinElmer, ENVISION).
Table 1. Inhibitory activity data for ERK phosphorylation of AGS cells

CCc1c(F)ccc2cc(O)cc(-c3nc4c5c(nc(OCC6(CN7C[C@H]8C[C@H]8[C@@H]7CO)CC6)nc5c3F)N3C[C@H]5CC[C@H](N5)[C@H]3CO4)c12 [Example 21, 5 -Ethyl-6-fluoro-4-((5aS,6S,9R)-1-fluoro-12-((1-(((1R,2R,5S)-2-(hydroxymethyl)-3-azabicyclo[3.1.0]hex-3-yl)methyl)cyclopropyl)methoxy)-5a,6,7,8,9,10-hexahydro-5H-4-oxa-3,10a,11,13,14-pentaaza-6,9-methanonaphtho[1,8-ab]heptalen-2-yl)naphthalen-2-ol]
IC50 [1]: 14.7 nM
IC50 ([2]; Homo sapiens, AGS): 8.1 nM

Oc1cc(Cl)c(C(F)(F)F)c(-c2nc3c4c(nc(OC[C@@]56CCCN5C[C@H](F)C6)nc4c2F)N2C[C@H]4CC[C@H](N4)[C@H]2CO3)c1 [Example 14-p1, 3-Chloro-5-((5aS,6S,9R)-1-fluoro-12-(((2R,7aS)-2-fluorotetrahydro-1H-pyrrolizin-7a(5 H)-yl)methoxy)-5a,6,7,8,9,10-hexahydro-5H-4-oxa-3,10a,11,13,14-pentaaza-6,9-methanonaphtho[1,8-ab]heptalen-2-yl)-4-(trifluoromethyl)phenol]
IC50 ([2]; Homo sapiens, AGS): 20.2 nM

CCc1c(F)ccc2cc(O)cc(-c3nc4c5c(nc(OCC6(CN7C[C@@H]8C[C@@H]8[C@H]7CO)CC6)nc5c3F)N3C[C@H]5CC[C@H](N5)[C@H]3CO4)c12 [Example 20, 5 -Ethyl-6-fluoro-4-((5aS,6S,9R)-1-fluoro-12-((1-(((1S,2S,5R)-2-(hydroxymethyl)-3-azabicyclo[3.1.0]hex-3-yl)methyl)cyclopropyl)methoxy)-5a,6,7,8,9,10-hexahydro-5H-4-oxa-3,10a,11,13,14-pentaaza-6,9-methanonaphtho[1,8-ab]heptalen-2-yl)naphthalen-2-ol]
IC50 [1]: 8.8 nM
IC50 ([2]; Homo sapiens, AGS): 14 nM

Oc1cc(-c2cc3nc(OC[C@@]45CCCN4C[C@H](F)C5)nc4c3c(n2)OCC2C3CCC(CN42)N3)c2c(F)cccc2c1 (single isomer, unassigned) [Diastereomeric (1:1) mixture of 1-p1 and 1-p2]
IC50 [2]: 94.1 nM

CCc1cccc2cc(O)cc(-c3nc4c5c(nc(OC[C@@]67CCCN6C[C@H](F)C7)nc5c3F)N3C[C@@H]5CC[C@@H](N5)[C@@H]3CO4)c12 [Example 4-p2, 5-Ethyl-4-((5aR,6R,9S)-1-fluoro-12-(((2R,7aS)-2-fluorotetrahydro-1H-pyrrolizin-7a(5H )-yl)methoxy)-5a,6,7,8,9,10-hexahydro-5H-4-oxa-3,10a,11,13,14-pentaaza-6,9-methanonaphtho[1,8-ab]heptalen-2-yl)naphthalen-2-ol]
IC50 ([2]; Homo sapiens, AGS): 86.5 nM

CCc1c(F)ccc2cc(O)cc(-c3nc4c5c(nc(OCC6(CN7CCC[C@@H]7CO)CC6)nc5c3F)N3C[C@H]5CC[C@H](N5)[C@H]3CO4)c12 [Example 15, 5-Ethyl-6-fluoro-4-((5aS,6S,9R)-1-fluoro-12-((1-(((R)-2-(hydroxymethyl)pyrrolidin-1-yl)methyl)cyclopropyl)methoxy)-5a,6,7,8,9,10-hexahydro-5H-4-oxa-3,10a,11,13,14-pentaaza-6,9-methanonaphtho[1,8-ab]heptalen-2-yl)naphthalen-2-ol]
IC50 [1]: 7.2 nM
IC50 ([2]; Homo sapiens, AGS): 13.4 nM

CCc1c(F)ccc2cc(O)cc(-c3nc4c5c(nc(OC[C@@]67CCCN6C[C@H](F)C7)nc5c3F)N3C[C@@H]5CC[C@@H](N5)[C@@H]3CO4)c12 [Example 9-p2, 5-Ethyl-6-fluoro-4-((5aR,6R,9S)-1-fluoro-12-(((2R,7aS)-2-fluorotetrahydro-1H-pyrrolizin-7a(5H)-yl)methoxy)-5a,6,7,8,9,10-hexahydro-5H-4-oxa-3,10a,11,13,14-pentaaza-6,9-methanonaphtho[1,8-ab]heptalen-2-yl)naphthalen-2-ol]
IC50 ([2]; Homo sapiens, AGS): 60.4 nM

CCc1c(F)ccc2cc(O)cc(-c3nc4c5c(nc(OCC6(CN7CC=C[C@@H]7CO)CC6)nc5c3F)N3C[C@H]5CC[C@H](N5)[C@H]3CO4)c12 [Example 16, 5-Ethyl-6-fluoro-4-((5aS,6S,9R)-1-fluoro-12-((1-(((R)-2-(hydroxymethyl)-2,5-dihydro-1 H-pyrrol-1-yl)methyl)cyclopropyl)methoxy)-5a,6,7,8,9,10-hexahydro-5H-4-oxa-3,10a, 1 1,13,14-pentaaza-6,9-methanonaphtho[1,8-ab]heptalen-2-yl)naphthalen-2-ol]
IC50 [1]: 10.1 nM
IC50 ([2]; Homo sapiens, AGS): 11.6 nM

CCc1cccc2cc(O)cc(-c3nc4c5c(nc(OC[C@@]67CCCN6C[C@H](F)C7)nc5c3F)N3CC5CCC(N5)C3CO4)c12 (single isomer, unassigned) [Diastereomeric (1:1) mixture of 4-p1 and 4-p2]
IC50 [2]: 1.35 nM

CCc1cccc2cc(O)cc(-c3cc4c5c(nc(OC[C@@]67CCCN6C[C@H](F)C7)nc5c3F)N3CC5CCC(N5)C3CO4)c12 (single isomer, unassigned) [Diastereomeric (1:1) mixture of 11-p1 and 11-p2]
IC50 [1]: 62.5 nM
IC50 [2]: 15.6 nM

CCc1c(F)ccc2cc(O)cc(-c3nc4c5c(nc(OCC6(CN7CCC[C@H]7COC(=O)N(C)C)CC6)nc5c3F)N3C[C@H]5CC[C@H](N5)[C@H]3CO4)c12 [Example 25, ((S)-1-((1-((((5aS,6S,9R)-2-(8-ethyl-7-fluoro-3-hydroxynaphthalen-1-yl)-1-fluoro-5a,6,7,8,9,10-hexahydro-5H-4-oxa-3,10a,11,13,14-pentaaza-6,9-methanonaphtho[1,8-ab]heptalen-12-yl)oxy)methyl)cyclopropyl)methyl)pyrrolidin-2-yl)methyl dimethylcarbamate]
IC50 [1]: 48.5 nM
IC50 ([2]; Homo sapiens, AGS): 23.5 nM

CCc1c(F)ccc2cc(O)cc(-c3nc4c5c(nc(OCC6(CN7CC=C[C@H]7CO)CC6)nc5c3F)N3C[C@H]5CC[C@H](N5)[C@H]3CO4)c12 [Example 18, 5-Ethyl-6-fluoro-4-((5aS,6S,9R)-1-fluoro-12-((1-(((S)-2-(hydroxymethyl)-2,5-dihydro-1 H-pyrrol-1-yl)methyl)cyclopropyl)methoxy)-5a,6,7,8,9,10-hexahydro-5H-4-oxa-3,10a, 1 1,13,14-pentaaza-6,9-methanonaphtho[1,8-ab]heptalen-2-yl)naphthalen-2-ol]
IC50 [1]: 39.3 nM
IC50 ([2]; Homo sapiens, AGS): 10.5 nM

CCc1cccc2cc(O)cc(-c3cc4nc(OC[C@@]56CCCN5C[C@H](F)C6)nc5c4c(n3)OCC3C4CCC(CN53)N4)c12 (mixture of isomers) [Diastereomeric (1:1) mixture of 2-p1 and 2-p2]
IC50 [1]: 19.9 nM
IC50 ([2]; Homo sapiens, AGS): 6.6 nM

CCc1c(F)ccc2cc(O)cc(-c3nc4c5c(nc(OCC6(CN7C[C@@H]8C[C@@H]8[C@@H]7CO)CC6)nc5c3F)N3C[C@H]5CC[C@H](N5)[C@H]3CO4)c12 [Example 19, 5 -Ethyl-6-fluoro-4-((5aS,6S,9R)-1-fluoro-12-((1-(((1S,2R,5R)-2-(hydroxymethyl)-3-azabicyclo[3.1.0]hex-3-yl)methyl)cyclopropyl)methoxy)-5a,6,7,8,9,10-hexahydro-5H-4-oxa-3,10a,11,13,14-pentaaza-6,9-methanonaphtho[1,8-ab]heptalen-2-yl)naphthalen-2-ol]
IC50 [1]: 28.9 nM
IC50 ([2]; Homo sapiens, AGS): 31.1 nM
